For orientation: melting point means the temperature of the solid-liquid transition.

On to `CC(CNS(=O)(=O)C(C)C)c1ccc(-c2ccc3c(c2)CC(=O)N3)cc1` (centres unmarked) [Example 3, 5-[4-(1-methyl-2-{[(methylethyl)sulfonyl]amino}ethyl)phenyl]indolin-2-one], for which the melting point lay in the range of 170 to 171 °C.
In turn, `CC(C)S(=O)(=O)NC[C@H](C)c1ccc(-c2ccc3c(c2)CC(=O)N3)cc1` [Example 4, 5-[4-((1R)-1-methyl-2-{[(methylethyl)sulfonyl]amino}ethyl)phenyl]indolin-2-one] came in with a melting point of 184 to 185 °C.
